In patent publication US6469028B1, “Synthesis and use of retinoid compounds having negative hormone and/or anatgonist activities” (Allergan, Inc., priority 1995, dated 2002):

Assays:
primary RPE cells = assay: Example 27: proliferation of primary RPE cells with TR-1; format: cell-based, Human; settings: five days of treatment
Method: Human primary RPE cells are obtained and cultured according to standard methods. The cultured cells are divided into four groups and treated as follows. Group 1 receives vehicle alone (ethanol). Group 2 is treated with 13-cis retinoic acid at concentrations ranging from 10^−11 to 10^−6 M. Group 3 is treated with the thyroid hormone inverse agonist TR-1 at concentrations ranging from 10^−11 to […]. Group 4 is co-treated with 13-cis retinoic acid at concentrations ranging from 10^−11 to 10^−6 M TR-1. Cells are refed with fresh growth medium and re-treated with the appropriate compound every two days for a total of five days of treatment. The proliferation rate over the duration of the experiment is quantitated via measurement of the cell number in the cultures using an electric cell counter.

[1] = tested on: retinal pigment epithelium (RPE) cells; assay: Example 19: proliferation of primary retinal pigment epithelium cultures; format: cell-based, human; settings: for RPE cell growth: single agent, 10^−12 to 10^−6M (FIG. 18)
Method: Primary cultures of human retinal pigment epithelium (RPE) were established according to the method described by Campochiaro et al. in Invest. Opthal & Vis. Sci. 32:65 (1991). 5×10^4 cells were plated in 16-mm wells of 24-well multiwell plates in DMEM (Gibco) containing 5% FBS. […] Cells were fed with fresh media containing the appropriate concentrations of these compounds every two days for a total of five days of treatment. Cells were removed from the plates by gentle digestion with trypsin and the number of cells was counted with an electronic cell counter.
AGN 193109 was tested for its ability to potentiate the anti-proliferative effect of 13-cis retinoic acid (13-cis RA) in primary RPE cultures using conditions and techniques to measure RPE cell proliferation described above. […] More particularly, 13-cis RA is useful in the treatment of several disease states, including acne (Peck et al. N. Engl. J. Med. 300:329 (1977); Jones et al. Br. J. Dermatol. 108:333 (1980)), and squamous cell carcinoma of the skin and cervix in combination treatment with interferon 2α (Lippman et al. J. Natl. Cancer Inst. 84:241 (1992); Moore et al. Seminars in Hematology 31:31 (1994)).
We next tested the ability of AGN 193109 to potentiate the activities of other nuclear receptor hormones in primary RPE cell cultures. Dexamethasone, a synthetic glucocorticoid receptor agonist, is one member of a class of compounds that have been used clinically for their potent anti-inflammatory and immunosuppressive properties. Thyroid hormone (T3; […]) is a natural thyroid hormone receptor agonist used primarily for hormone replacement therapy in the treatment of hypothyroidism.

[2] = tested on: patients having retinal detachment resulting from PVR; settings: 40 mg oral 13-cis retinoic acid twice daily for four weeks
RARα = target: T1, RARα (Homo sapiens, UniProt P10276); assay: Example 8: protease protection analysis; format: biochemical; parameters: host or cells: TNT-coupled reticulocyte lysate in vitro transcription-translation; settings: ATRA and AGN 193109 100 nM, AGN 193583 1000 nM; trypsin 25, 50 or 100 μg/ml, 10 minutes
T1 sequence (P10276 1-462): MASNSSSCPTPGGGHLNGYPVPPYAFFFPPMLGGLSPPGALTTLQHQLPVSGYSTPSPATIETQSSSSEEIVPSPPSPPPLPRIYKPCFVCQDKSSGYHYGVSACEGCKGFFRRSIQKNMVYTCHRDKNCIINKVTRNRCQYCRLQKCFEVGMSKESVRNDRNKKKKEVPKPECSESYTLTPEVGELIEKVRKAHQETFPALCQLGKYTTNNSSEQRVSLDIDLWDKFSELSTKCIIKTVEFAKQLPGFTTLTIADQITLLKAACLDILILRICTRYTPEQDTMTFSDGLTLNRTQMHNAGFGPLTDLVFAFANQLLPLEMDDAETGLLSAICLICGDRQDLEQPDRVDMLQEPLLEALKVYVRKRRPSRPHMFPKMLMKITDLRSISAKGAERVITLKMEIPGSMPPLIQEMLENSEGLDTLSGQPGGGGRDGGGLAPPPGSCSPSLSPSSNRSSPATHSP
Method: A plasmid constructed in the vector pGEM3Z (Pharmacia) and containing the RAR-α cDNA (Giguere et al. Nature 330:624 (1987)), was used in connection with the TNT-coupled reticulocyte lysate in vitro transcription-translation system (Promega) to prepare [^35S]-methionine labeled RAR-α. Limited proteolytic digestion of the labeled protein RAR-α was carried out according to the method described by Keidel et al. in Mol. Cell. Biol. 14:287 (1994). […] After ligand binding, 1 μl of appropriately concentrated trypsin was added to the mixture to give final concentrations of 25, 50 or 100 μg/ml. Samples were incubated at room temperature for 10 minutes and trypsin digestion stopped by addition of SDS-sample buffer. Samples were subjected to polyacrylamide gel electrophoresis and autoradiographed according to standard procedures.

[3] = tested on: cultured cervical carcinoma cells; assay: Example 23: cultured cervical carcinoma cells from a patient biopsy; format: cell-based; settings: 10^−10 to 10^−6 M
From the text: A patient presenting with an advanced cervical carcinoma is first identified. A cervical biopsy is obtained according to methods that will be familiar to one having ordinary skill in the art. Cells from the explanted tumor are propagated in tissue culture according to standard techniques to provide cell numbers sufficient to allow division into three sample groups. Culture conditions described by Agarwal et al. in Cancer Res. 54:2108 (1994) are employed for this purpose. The first group is reserved as a control and receives vehicle alone (ethanol). The second group is treated with the RAR agonist retinoic acid at a concentration of from 10^−10 to 10^−6 M. The third group is treated with AGN 193109 at doses ranging from 10^−10 to 10^−6 M. Cells are fed with fresh growth medium daily and are provided with the retinoids described above as appropriate for each sample group. Cells are counted after three days using an electric cell counter.

ER-RAR-α = assay: Example 10: repression of basal gene activity, ERE-tk-Luc, CV-1 cells; format: cell-based; settings: 10^−9 to 10^−6 M, 18 hours, single agent
From the text: (§1) More specifically, these procedures employed the ER-RAR chimeric receptor and ERE-tk-Luc reporter system. The ERE-tk-Luc plasmid includes the region −397 to −87 of the estrogen responsive 5′-flanking region of the Xenopus vitellogenin A2 gene, described by Klein-Hitpass, et al. in Cell 46:1053-1061 (1986), ligated upstream of the HSV thymidine kinase promoter and luciferase reporter gene of plasmid tk-Luc. The ER-RAR chimeric receptors consisted of the estrogen receptor DNA binding domain fused to the “D-E-F” domain of the RARs. Those having ordinary skill in the art appreciate this “D-E-F” domain functions to bind retinoid, to provide a retinoid inducible transactivation function and to provide a contact site for heterodimerization with RXR. Thus, luciferase expression in this reporter system was dependent on activation of the transfected chimeric receptor construct.
(§2) CV-1 cells were co-transfected with the ERE-tk-Luc reporter plasmid and either ER-RAR-α, ER-RAR-β or ER-RAR-γ expression plasmids. The ERE-tk-Luc plasmid contained the estrogen-responsive promoter element of the Xenopus laevis vitellogenin A2 gene and was substantially identical to the reporter plasmid described by Klein-Hitpass et al. in Cell 46:1053 (1986), except that the CAT reporter gene was substituted by a polynucleotide sequence encoding luciferase. The ER-RAR-α, ER-RARβ and ER-RAR-γ chimeric receptor-encoding polynucleotides employed in the co-transfection have been described by Graupner et al. in Biochem. Biophys. Res. Comm. 179:1554 (1991). […] Calcium phosphate transfections were carried out exactly as described in Example 6 using 0.5 μg/well of reporter plasmid and either 0.05 μg, 0.10 μg or 0.2 μg/well of receptor plasmid. […] Cell lysates and luciferase activity measurements were performed as described in Example 6.

ER-RAR-γ = assay: as above; format: cell-based; settings: 10^−9 to 10^−6 M, 18 hours, single agent
From the text: as §1, §2

ER-RAR-β = assay: as above; format: cell-based; settings: 10^−9 to 10^−6 M, 18 hours, single agent
From the text: as §1, §2

[4] = tested on: RAR-γ-VP-16 with ER-RXR-α; settings: no other retinoid added, 18 hours
rabbits = assay: Example 24: rabbit model of proliferative vitreoretinopathy (PVR); format: in vivo
T3R-VP-16 = assay: Example 26: thyroid hormone receptor negative hormone assay, CV-1 cells; format: cell-based; settings: CV-1 cells with ERE-tk-Luc, ER-RXRα and T3R-VP-16
From the text: CV-1 cells are co-transfected with the luciferase reporter plasmid ERE-tk-Luc and the plasmids ER-RXR-α and T3R-VP-16. T3R-VP-16 is identical to the plasmid RAR-γ-VP-16, except the RAR-γ moiety of RAR-γ-VP-16 has been substituted by the thyroid hormone receptor cDNA. As such, T3R-VP-16 expresses a fusion protein containing the activation domain of HSV VP-16 in frame with the N-terminus of the thyroid hormone receptor. Standard transfection and cell culture methods are employed for this purpose. After transfection, cells are rinsed and fed with growth medium containing 10% fetal calf serum which has been extracted with activated charcoal. Cells are treated with vehicle alone (ethanol), thyroid hormone (10^−9 to 10^−10 M), or compound TR-1 (10^−9 to 10^−6 M). […] Further, TR-1 is capable of antagonizing thyroid hormone mediated transactivation and as such is a thyroid receptor antagonist.

SMILES | cellular proliferation, single agent (primary RPE cells) | effectiveness compared with ATRA ([1]; 13-cis RA 10^−12 to 10^−6M) | RPE cell growth [1] | incidence of retinal redetachment [2] | RPE cell proliferation ([1]; single-agent treatment (FIG. 19): dexamethasone 10^−11 to 10^−6M, ATRA 10^−12 to 10^−6M) | pattern of trypsin sensitivity of labeled RAR-α after prebinding (RARα) | cell number after three days [3] | luciferase reporter activity (ER-RAR-α) | luciferase reporter activity (ER-RAR-γ) | luciferase reporter activity (ER-RAR-β) | luciferase activity of triple transfectants [4] | frequency and severity of tractional retinal detachment (rabbits; retinoic acid 100 μg intravitreal, single agent) | RPE cell proliferation ([1]; thyroid hormone alone, 10^−11 to 10^−6M) | luciferase activity (T3R-VP-16) | retinal detachment compared with control rabbits (rabbits; second study, single agent 100 μg intravitreal)
CC1=C(/C=C/C(C)=C/C=C/C(C)=C\C(=O)O)C(C)(C)CCC1 [13-cis RA, 13-cis retinoic acid, reference compound] | dose dependent decrease in cell number | approximately two orders of magnitude less effective | effectively inhibited RPE cell growth | significantly reduced incidence of retinal redetachment | – | – | – | – | – | – | – | – | – | – | –
CC1=C(/C=C/C(C)=C/C=C/C(C)=C/C(=O)O)C(C)(C)CCC1 [ATRA, all-trans-retinoic acid, reference compound] | – | – | effectively inhibited RPE cell growth | – | substantially unable to inhibit RPE cell proliferation | two major protease resistant species | does not substantially inhibit the growth rate | strongly induced luciferase expression | strongly induced luciferase expression | strongly induced luciferase expression | modest increase of luciferase activity over the high basal level | significantly reduced frequency and severity of retinal detachment | – | – | –
N[C@@H](Cc1cc(I)c(Oc2ccc(O)c(I)c2)c(I)c1)C(=O)O [thyroid hormone, 3,3′,5-triiodothyronine, reference compound] | – | – | – | – | – | – | – | – | – | – | – | – | refractory to single-agent treatment | slight increase of luciferase activity in a dose dependent manner | does not inhibit retinal detachment
